For data set [1] the following is noted: Crystal; visual observation.
A short description of data set [2]: Molar enthalpy of transition or fusion. To be noted: Crystal; DSC.

± gives the expanded uncertainty stated by the source.

Regarding `O=C(O)c1ccccc1Cl` [2-chlorobenzoic acid], the Normal melting temperature in data set [1] was 141.00 ± 0.4 °C. Besides, in data set [2], the “Molar enthalpy of transition or fusion” value turned out to be 6.58 ± 0.189 kcal/mol.
For `NC(=O)c1ccccc1` [benzamide] the same measures were 127.00 ± 0.4 °C and 5.53 ± 0.163 kcal/mol.

The values above are taken from the NIST ThermoML archive (doi:10.1021/je800848u).
